PMC8381248 (Frontiers in Pharmacology, 2021)
Several values for one entry are separate records, joined by “and”; a condition that tells them apart may be missing. Identical values can stand only once. Like-named read-outs stand apart in the source and are kept apart here.

Legend:
[1] = Pharmacokinetic study in rat plasma after intravenous and oral administration; type: in vivo, Sprague-Dawley (SD) rats; settings: for Cmax / AUC(0-t) / Tmax / AUC(0-inf) / MRT inf / Cl_pred / HL_Lambda_z / Vz_pred: rat plasma; for AUC(0-inf): read-out: AUCINF_pred; for MRT inf: read-out: MRTINF_pred
Experimental: (§1) Eighteen male SD rats were housed in the barrier rodent facilities to acclimatize for a week in animal quarters, which had air conditioning and an automatically controlled photoperiod of 12 h of light daily. Rats had free access to standard chow diet and water until 12 h prior to the beginning of the experiment, at which time only water was accessed freely. The rats were randomly divided into six groups, with three rats in each group.
(§2) A series of calibration standard working solutions (20.0, 10.0, 2.0, 1.0, 0.2, 0.04, and 0.02 μg/ml) was prepared freshly by diluting the stock solution stepwise using ACN-water (70:30, v/v). […] The IS working solutions of 200 ng/ml of tolbutamide or 50 ng/ml of diclofenac sodium were prepared by dilution of the stock standard solution with acetonitrile solution. All the solutions were stored at 4°C and brought to room temperature before use.
(§3) QC samples (3, 40, 800, and 1,600 ng/ml) were prepared separately. For PDG urine samples, the calibration standards were prepared by spiking 5 μL of the appropriate standard working solutions of PDG to 95 μL blank rat urine to prepare the final urine concentration of PDG ranging from 1 ng/ml to 2000 ng/ml. QC samples (3, 40, 800, and 1,600 ng/ml) were prepared separately. […] QC samples (15, 30, 400, and 1,600 ng/ml) were prepared separately.
Blood samples were collected via orbital venous plexus puncture into heparinized microfuge tubes at intervals of 0, 0.083, 0.25, 0.5, 1, 2, 4, 8, 10, 24, and 30 h after administration. The plasma samples were obtained by centrifuging the blood samples at 6,000 rpm for 10 min at 4°C and storing them at −20°C until further analysis. For the plasma calibration standards, QC plasma samples, and the testing plasma samples, 40 µL of the plasma samples were extracted with 120 µL of IS working solution (tolbutamide) by vortex mixing for 1 min and at 4°C centrifugation for 10 min at 13,000 rpm. The supernatant was separated and evaporated under a gentle stream of nitrogen. The residue was reconstituted with 120 µL of 30% ACN followed by vortex mixing. Then, the solutions were centrifuged at 13,000 rpm for 10 min at 4°C.
(§4) Linear gradient elution was performed with certain portions of 10 mM ammonium acetate-water solution containing 0.1% formic acid (mobile phase A) and methanol (mobile phase B). The detailed conditions have been described in Support Materials (Supplementary Table S5).
In the ADME properties and pharmacokinetics studies, data are presented as mean ± standard deviation (SD). Statistically significant differences were analyzed by one-way ANOVA or Student’s t-test. The level of significance was set at p < 0.05. The LC/MS/MS data were collected and analyzed by Analyst 1.6.1 (AB Sciex). Pharmacokinetic analyses were performed by non-compartmental methods using Phoenix WinNolin version 6.3 (Pharsight Corporation, Mountain View, CA, United States).

[2] = Urinary excretion study after intravenous administration; type: in vivo, Sprague-Dawley (SD) rats; settings: IV 5 mg/kg; for excretion amount in urine: rat
Experimental: as §1, §2, §3
Urine samples were collected while the rats remained isolated in metabolic cages at intervals of 0, 2, 4, 8, 24, and 30 h after administration, and the volumes of the urine were measured. The urine samples were also stored at −20°C before tested by LC-MS/MS. For the urine calibration standards, QC urine samples, and the testing urine samples, 100 µL of the urine samples were extracted with 300 µL of methyl tert-butyl ether (MTBE) by vortex mixing for 1 min and centrifuged at 4°C for 10 min at 13,000 rpm. Then, 200 µL of the supernatant was separated and evaporated under a gentle stream of nitrogen. The residue was reconstituted with 120 µL of 30% ACN with 5 µL of IS working solution ([…]), followed by vortex mixing for 10 min.
as §4

[3] = Kinetic solubility test in PBS; type: physicochemical; settings: phosphate-buffer saline (PBS)
Experimental: Internal standard (IS) solutions (propranolol and tolbutamide) were dissolved by acetonitrile (50 ng/ml propranolol + 200 ng/ml tolbutamide).
The sample solutions were analyzed using LC-MS/MS. All the samples (test samples and references) for detection were prepared in duplicate. The conditions for LC-MS/MS are shown in Support Materials (Supplementary Table S1).

in vitro = settings: PAMPA
Experimental: Verapamil and digoxin solutions, used as reference, prepared in the same manner as the test drugs. Tolbutamide dissolved with acetonitrile (200 ng/ml) was used as IS.
The resultant supernatants were determined by LC-MS/MS. The specific assay conditions are shown in Support Materials (Supplementary Table S2).

[4] = Plasma protein binding rate, rapid equilibrium dialysis, human plasma; type: in vitro ADME; settings: 37°C
Experimental: (§5) In brief, the unbound drugs (or references) were separated from plasma (human and rat) in a 96-well plate with a semipermeable membrane through which only unbound drug can permeate. The equilibrium unit was sealed and incubated at 37°C in a mixer at 100 rpm for 4 h.
(§6) Then, 50 ng/ml of midazolam and 50 ng/ml of tolbutamide (in acetonitrile) were used as IS.
(§7) After reaching equilibrium, the concentrations of the samples in both the plasma and the buffer compartment were determined. According to the specification, the resultant supernatant was collected, properly diluted by distilled water, vortexed for 10 min, and finally analyzed using LC-MS/MS. All the samples (PDG, PINL, diclofenac, and propranolol) for detection were prepared in duplicate.
(§8) The concentrations of the samples were determined by internal standard methods, in which the data were acquired and analyzed by Analyst 1.6.1 software station (AB Sciex Corporation, Boston, MA, United States). The equation of plasma protein binding rate is calculated as follows: Free drug rate (%)=CB/CA×100% (3) Plasma protein binding rate (%)=100%−Free drug rate(%) (4) C B is the drug concentration in dialysis chamber, and C A is the drug concentration in the sample chamber.

[5] = Plasma protein binding rate, rapid equilibrium dialysis, rat plasma; type: in vitro ADME; settings: 37°C
Experimental: as §5, §6, §7, §8

[6] = male, Sprague-Dawley, IV 5 mg/kg, n = 3
[7] = male, Sprague-Dawley, PO 40 mg/kg, n = 3

COc1cc(C2OCC3C(c4ccc(OC5OC(CO)C(O)C(O)C5O)c(OC)c4)OCC23)ccc1OC1OC(CO)C(O)C(O)C1O (single isomer, unassigned; (+)) [PDG, (+)-1-pinoresinol 4,4′-di-O-β-D-glucopyranoside]
bioavailability ([1]; male, Sprague-Dawley, plasma, rat, from AUClast of IV 5 mg/kg and PO 40 mg/kg, read-out: absolute oral bioavailability (F%)): ~0.19%
Cmax ([1]; male, Sprague-Dawley, rat, plasma, iv, 5 mg/kg, IV 5 mg/kg, n = 3, read-out: Cmax): 13300 ng/mL
Cmax ([1]; male, Sprague-Dawley, rat, plasma, iv, 5 mg/kg, IV 5 mg/kg, ng/ml value expressed in molar units, read-out: Cmax): 19.6 µM
Cmax ([1]; male, Sprague-Dawley, rat, plasma, po, 40 mg/kg, PO 40 mg/kg, n = 3, read-out: Cmax): 45.3 ± 37.5 ng/mL
Cmax ([1]; male, Sprague-Dawley, rat, plasma, po, 40 mg/kg, PO 40 mg/kg, ng/ml value expressed in molar units, read-out: Cmax): 0.0665 µM
AUC(0-t) [1, 6]: 7470 ng·h/mL
Tmax [1, 6]: 6 min
AUC(0-inf) [1, 6]: 7470 ng·h/mL
MRT inf [1, 6]: 30.6 ± 5.4 min
AUC(0-t) [1, 7]: 113 ± 122 ng·h/mL
Tmax [1, 7]: 30 min
AUC(0-inf) [1, 7]: 121 ± 129 ng·h/mL
MRT inf [1, 7]: 114 ± 57 min
Cl_pred ([1]; IV 5 mg/kg, n = 3): 0.69 ± 0.15 L/h/kg
HL_Lambda_z ([1]; IV 5 mg/kg, n = 3): 2.0 ± 0.5 h
Vz_pred ([1]; IV 5 mg/kg, n = 3): 1.98 ± 0.43 L/kg
Cmax ([1]; IV 5 mg/kg, n = 3, 5 mg/kg): 13,328.57 ± 1,625.4 ng/ml
Cl_pred ([1]; PO 40 mg/kg, n = 3): 653.9 ± 492.6 L/h/kg
Vz_pred ([1]; PO 40 mg/kg, n = 3): 777.0 ± 392.4 L/kg
HL_Lambda_z ([1]; PO 40 mg/kg, n = 3, 40 mg/kg): 1.15 h and 1.15 ± 0.75 h
cumulative urinary excretion, % of the dose ([2]; rat urine, for 30 h): approximately 78.24%
Cumulative Excretion Amount ([2]; rat urine, within 30 h, n = 3): 807,789.5 ± 65,828.8 ng
excretion amount in urine ([2]; 0–2 h, n = 3): 503,669.8 ± 292,869.4 ng
excretion amount in urine ([2]; 2–4 h, n = 3): 274,878.3 ± 236,625.8 ng
excretion amount in urine ([2]; 4–8 h, n = 3): 989.1 ± 1,053.6 ng
excretion amount in urine ([2]; 8–24 h, n = 3): 2,596.9 ± 1776.4 ng
excretion amount in urine ([2]; 24–30 h, n = 3): 245.1 ± 173.0 ng
excretion amount in urine ([2]; Wash, n = 3): 25,410.3 ± 5,874.3 ng
solubility kinetic ([3]; aqueous buffer, kinetic from dmso stock, PBS (100 mM, pH 7.4)): 99.5 ± 14 µg/mL
solubility kinetic ([3]; aqueous buffer, kinetic from dmso stock, PBS (pH 7.4), μg/ml value expressed in µM): ~146 µM
solubility kinetic ([3]; PBS (pH 7.4), μg/ml value expressed in µM): > 100 µM
Papp at 18000 s (in vitro): 0.002 ×10⁻⁶ cm/s
Peff (in vitro; 18000 s): 0.02 cm/s, ×10^–7
fraction unbound at 4 h, 10 µM [4]: 0.548
fraction unbound at 4 h, 10 µM [5]: 0.623
